Source: a melting point compilation (Tetko et al.; mined from patent text by program, amines drawn as free bases though some values may be those of a salt)

| SMILES | melting point |
| --- | --- |
| CCCCc1c2c(nc3cc(F)cc(F)c13)-c1cc3c(c(=O)n1C2)COC(=O)CC3(O)CC (centres undefined) | 190 °C |
| CS(=O)(=O)OCC(c1ccccc1)c1ccccc1 | 101 to 102 °C |
| Cn1c(CNC2CCS(=O)(=O)CC2)cc2cc(NC(=O)c3ccc(OCC4CC4)cc3)ccc21 | 200 to 201 °C |
| Cc1cc(C(=O)Nc2ccc(S(=O)(=O)C(F)(F)F)cc2Cl)c(O)c(C(C)(C)C)c1 | 209 to 212 °C |
| COc1ccc(CNc2nc(CCCCC(=O)O)nc3sc(C)c(C)c23)cc1Cl | 156 °C |
| CN1CC2=C(n3cnc(C#Cc4ccccc4)c3C1)S(=O)C=C2 (centres undefined) | 143 to 144 °C |
| CCCCCC1CCc2c(c(F)c(F)c3oc(C)cc23)O1 (centres undefined) | 61 °C |
| CCS(=O)(=O)c1cc(OCCCCCCc2cccc(OCCCC(=O)O)c2CCC(=O)O)cc(-c2ccc3c(c2)OCO3)c1 | 134 to 135 °C |
| COc1cc(Cl)cc(CO)c1Cl | 58 to 64 °C |
| O=C(O)C(=O)c1ccc(OCCOc2ccc([N+](=O)[O-])cc2)cc1 | 129 to 130 °C |
| O=C1N(c2c(Cl)cccc2Cl)Cc2cnc(NC3CCCCC3)nc2N1c1ccccc1 | 258 to 259 °C |
| COC(=O)C(CC(=O)c1ccccc1)SC(C)=O (centres undefined) | 53.5 to 54 °C |
| CCOC(=O)c1cn(-c2ccc(F)cc2F)c2nc(OS(=O)(=O)c3ccccc3[N+](=O)[O-])c(F)cc2c1=O | 157 to 160 °C |
| O=C(O)C(=O)N1CCC(Oc2ccc(Cl)cc2)CC1 | 144 to 145 °C |
| O=c1cc(Sc2ccccc2)cc[nH]1 | 202 °C |
| CCOC(=O)[C@H](Cc1ccc(-c2c(OC)cc(CO)cc2OC)cc1)NC(=O)c1c(F)cccc1F | 70 to 72 °C |
| N#Cc1cc(C(=O)c2ccccc2)ccc1[N+](=O)[O-] | 117 to 119 °C |
| CN1C(=O)Cc2cc(Cl)ccc21 | 118 to 119 °C |
| COc1cc(NC(=O)Nc2ccccc2)cc(OC)n1 | 190 to 192 °C |
| CCCCN1CCN(CCNC(=O)c2nn(C(C)C)c3ccccc23)CC1 | 82 to 84 °C |
| Cn1nc(-c2ccc(Cl)c(Cl)c2)c2ccccc2c1=O | 179 to 181 °C |
| O=C(N[C@@H](CSC(=O)c1ccccc1)C(=O)O)c1ccccc1 | 183 to 185 °C |
| Cc1nc(-c2cc(C)c(OCCCc3cnc(C)s3)c(C)c2)no1 | 60 to 62 °C |

| SMILES | melting point |
| --- | --- |
| COc1cc(C=C2C(=O)CCc3c2ccc(OC)c3OC)c([N+](=O)[O-])cc1OC | 70 to 72 °C |
| O=C(O)Cc1ccc(Oc2ccc(CC3SC(=O)NC3=O)cc2)cc1 (centres undefined) | 166 °C |
| CN(c1ccccc1)c1ncnc2cc(C(F)(F)F)ccc12 | 135 to 137 °C |
| CCCCCCCCCCCCCCCCCCOc1cc(N(CC(=O)OC)CC(=O)OC)cc(S(=O)CC(=O)OC)c1 (centres undefined) | 81 to 83 °C |
| CN(Sc1ccc(C(C)(C)C)cc1)C(=O)Oc1cccc2c1OC(C)(C)C2 | 120 to 123 °C |
| CC(C)NC(=O)c1nn(-c2ccc(Cl)cc2)c(=O)c2c(N)scc12 | 197 to 199 °C |
| NC(=O)C1CCCCc2cc3c(nc21)CCCCC3 (centres undefined) | 179 °C |
| O=[N+]([O-])c1cc2ccc(C(Cl)(Cl)Cl)nc2c2nc(C(Cl)(Cl)Cl)ccc12 | 228 to 231 °C |
| CCOc1nc(N)c2ncn(C3CCCCC3)c2n1 | 134 to 136 °C |
| CC(C)(C)c1ccc(CCCC(=O)CC2CCCCC2)cc1NC(=O)CC1c2ccccc2Oc2ccccc21 | 193 to 194 °C |
| O=C(O)Cn1c(=O)c(=O)[nH]c2cc([N+](=O)[O-])c(-n3ccc(CN4CCN(C(c5ccccc5)c5ccccc5)CC4)c3)cc21 | > 245 °C |
| CS(=O)(=O)On1nnc2ccccc2c1=O | 132 to 134 °C |
| CCOC(=O)c1c(C)n(C(=O)c2ccccc2)c2ccc(Oc3nc(OC)cc(OC)n3)c(C(=O)O)c12 | 113 to 115 °C |
| Cc1ccc2c(NCc3ccc(NC(=O)c4ccc(Br)cc4)cc3)nc(Cl)nc2c1 | 295 to 298 °C |
| CCCCCCCCCC(=O)Oc1ccc2c(N3CCN(CCCC(=O)c4ccc(F)cc4)CC3)noc2c1 | 69 to 71 °C |
| N#Cc1cccc(NC(=O)NCc2cccc3c2C(=O)N(C2CCC(=O)NC2=O)C3=O)c1 (centres undefined) | 228 to 230 °C |
| ClCc1nnc2n1-c1ccc(Cl)cc1C(c1ccccc1Cl)=NC2 | 195 to 198 °C |
| CN(Cc1ccccc1)Cc1c(-c2ccc(NC(=O)NO)cc2)sc2c1c(=O)n(-c1ccccc1)c(=O)n2Cc1c(F)cccc1F | 164 to 165 °C |
| CCCC1(O)CCC2C3CCC4=CC(=O)CCC4C3CCC21CC (centres undefined) | 132 to 134 °C |
| C#CCn1c(=O)n(C)c(=O)c2c1nc(Cl)n2Cc1ccccc1 | 169 to 172 °C |
| CCOCc1nc2c(N)nc3ccccc3c2n1N1CCOCC1 | 223 to 224 °C |
| O=C1Nc2ccccc2OCC1(Cl)Cl | 170 to 174 °C |

Other lines, results leading:

| melting point | SMILES |
| --- | --- |
| > 260 °C | Oc1cc2[nH]c3c(O)c(O)cc(Br)c3c2cc1O |
| 152 to 155 °C | CN(CC(=O)O)c1cc(Br)ccc1[N+](=O)[O-] |
| 68 to 74 °C | Cc1nc(OCC#N)c(C#N)c(N2CCc3ccccc3CC2)n1 |
| 122 to 125 °C | Cc1cccc(-c2n[nH]cc2-c2ccc(F)c(-c3cc(F)c(S(N)(=O)=O)cc3F)c2)n1 |
| 158 to 159 °C | Cc1c(NC(=O)c2ccc(OC[C@@H]3CCCO3)cc2)ccc2cc(CNC3CCOCC3)cnc12 |
| 142 °C | COC(=O)CCc1cc2cc(Cl)c(Cl)cc2[nH]1 |
| 92 to 94 °C | CC12CCC(C(=O)N(CCCCN3CCN(c4ncccn4)CC3)C1=O)C2(C)C (centres undefined) |
| 169 to 172 °C | C#CCNc1nc2cc3ccccc3cc2nc1Cl |
| 78 to 81 °C | COc1cc(OC2CCN(Cc3cccnc3)CC2)ccc1CC(=O)N1CCN(c2ccccc2C)CC1C(N)=O (centres undefined) |
| 98 to 100 °C | CC(C#CCOc1cccc(Oc2ccccc2)c1)N(O)C(N)=O (centres undefined) |
| 78 to 79 °C | CC1CN(C(=O)CCl)c2ccccc21 (centres undefined) |
| 82 to 85 °C | C#CCN(C(=O)c1cnccc1C(F)(F)F)S(=O)(=O)c1cccc(Cl)c1 |
| > 280 °C | O=c1[nH]c2cc(Br)cc(Br)c2c(=O)n1Cc1ccccc1 |
| 71 to 73 °C | N#CCc1cccc(CBr)c1[N+](=O)[O-] |
| 175 to 180 °C | NCCN1CCN(c2ncc3ncnc(Nc4ccc(F)c(Cl)c4)c3n2)CC1 |
| 88 to 89 °C | CCCCCCCCCCCCCC(=O)N[C@H](C(=O)O)C(C)C |
| 177 to 179 °C | Cc1c[nH]c(Cc2ccccc2NC(=O)N2CCN(C)CC2)n1 |
| 116 to 119 °C | CCN1Cc2ccccc2C(=O)c2cc(CC(=O)OC)ccc21 |
| 177 to 179 °C | O=[N+]([O-])c1cccc(C=[N+]([O-])c2cccc(CO)c2)c1 |
| 82 to 83 °C | CCOC(=O)/C=C/C=C/c1ccc(CCc2nc(-c3ccccc3)oc2C)cc1 |
| 199 to 200 °C | CCOC(=O)/C=C/c1cccc(C2COc3c(C)c(C)c(NC(=O)CC(C)(C)C)c(C)c32)c1 (centres undefined) |
| 95 to 99 °C | C=C(F)C(=O)Oc1c(Cl)cc(C#N)cc1Cl |
| 94 to 96 °C | C[Si](C)(C)C1(COC(=O)Nc2ccccc2)c2ccccc2-c2ccccc21 |
| 70 to 71 °C | CC(C)[C@H](NC(=O)N(C)Cc1csc(C2CC2)n1)C(=O)N[C@@H](Cc1ccccc1)C[C@H](O)[C@H](Cc1ccccc1)NC(=O)OCc1cncs1 |
